Experimental data reported in patent US20040219512A1, “Screening methods for cataractogenic risk” (Pfizer Inc, priority 2003, published 2004).

Legend:
SRA 01/04 cells = conditions: concentrations of TEA greater than five mM
Excerpt: Preparation of Lens Epithelial Cell Line Culture Cells from the cell line, SRA 01/04 (deposited in the National Institute of Bioscience and Human-Technology Agency of Industrial Science and Technology, Ibaraki, Japan, international deposit No. FERM BP-5454) were thawed and plated on the bottom of a 25 square centimeter tissue culture flask (Falcon™ Flask, BD Biosciences, Lincoln Park, N.J.) and grown in high-glucose DMEM supplemented with 15% of FBS (Invitrogen, Grand Island, N.Y.) and 1% of penicillin/streptomysin (Invitrogen) at 37° C. in 5% CO2 and 95% air environment. The medium was changed twice a week. When confluence of 90-100% was reached (about 7-14 days), the medium was removed from the culture flask and the cells on the bottoms were washed with one ml of trypsin-EDTA (0.05% trypsin and EDTA, Invitrogen). […]
Approximately 15 μl of the cell suspension was pipetted onto a glass coverslip (Warner Instruments, Hamden, Conn., USA) placed on the transparent bottoms of a recording chamber mounted on an inverted differential interference contrast microscope (Eclipse TE300, Nikon, Tokyo, Japan). Whole cell currents were measured under the whole-cell configuration at room temperature (24-26° C.) using a multiclamp 700A dual channel multi-purpose microelectrode amplifier (Axon Instruments, Foster City, Calif., USA). […]

Rodent lens explants = system: Rodent lens explants
Procedure: Rodent lenses were surgically removed and placed in tissue culture 199 (TC199) media (Invitrogen) supplemented with bicarbonate buffer with and without 10 mM TEA (Sigma Aldrich Co.). Darkfield photomicrographs of the cells were taken over a seven day period.

[1] = system: chloride channels on the lens; conditions: literature, Zhang, J. J. (1994); cited from earlier work

SMILES	additional current block at higher concentration (SRA 01/04 cells)	clouding of the lens compared with control (Rodent lens explants; 10 mM TEA in TC199 media, photomicrographs over seven days)	pixel intensity histogram of lens explants (Rodent lens explants; 10 mM TEA, imaged after five days in culture)	effect on chloride channels on the lens [1]
CC[N+](CC)(CC)CC [TEA, tetraethylammonium]	no significant additional current block	increased clouding of the lens	rightward shift in the intensity histogram	
CC/C(=C(\c1ccccc1)c1ccc(OCCN(C)C)cc1)c1ccccc1 [tamoxifen]				blocks chloride channels on the lens
